Data as given in patent US20240285634A1, “COMPOUND AND METHOD FOR TREATING CHEMOTHERAPY-ASSOCIATED GASTROINTESTINAL SIDE EFFECTS” (ONQUALITY PHARMACEUTICALS CHINA LTD., priority 2021, published 2024).

Test system: Chemotherapeutic agent-caused diarrhea models of Balb/c mice
Experiment: Relieving effect on diarrhea caused by a chemotherapeutic agent (Examples 1-201)
Assay type: in vivo
Text: Construction of mouse animal models: Chemotherapeutic agent-caused diarrhea models of Balb/c mice were constructed according to the administration mode and frequency of the chemotherapeutic agent as shown in Table 3. After administration for several days, mice developed different extents of diarrhea symptoms (as shown in FIG. 1), which were similar to the conditions in human. Thus, chemotherapeutic agent-caused diarrhea models of mice are very good models to mimic diarrhea in human caused by the chemotherapeutic agent.
Balb/c mice were fed for 1 week, and then divided into groups. The experiment was divided into a control group, a chemotherapeutic agent group, and a group of the compound as shown in Formula I, each of which comprised 10 mice, to perform the administration experiment, for which the administration dosage, mode, time and frequency were shown in Table 3. The control group: being injected or intragastrically administered with the same solvent as that used in the group of the compound as shown in Formula I (the injection mode and time were shown in Table 3), and then being injected or intragastrically administered with the same solvent as that used in the chemotherapeutic agent group (the administration mode was shown in Table 3); the chemotherapeutic agent group: being injected or intragastrically administered with the same solvent as that used in the group of the compound as shown in Formula I (the administration mode and time were shown in Table 3), and then being injected or intragastrically administered with the chemotherapeutic agent (the type, administration mode and dosage were shown in Table 3); the group of the compound as shown in Formula I: being injected or intragastrically administered with the compound as shown in Formula I (the administration mode and time were shown in Table 3), and then being administered with the chemotherapeutic agent (the administration mode and dosage were shown in Table 3).
The scoring of diarrhea can refer to the method of Akinobu Kurita (Cancer Chemother Pharmacol 2000; 46:211-20.), Grade 0: normal feces; Grade 1: mild diarrhea, the stools is slightly wet and soft; Grade 2: moderate diarrhea, loose stools and mild perianal contamination; Grade 3: severe diarrhea, watery stools and accompanied by severe perianal staining (see FIG. 1). It is regarded as effective remission when the diarrhea grading of mice in the group of the compound as shown in Formula I is reduced compared with the average diarrhea grading of mice in the chemotherapeutic agent group.
The diarrhea grading of mice was observed and recorded every day. At the end of the experiment, the number of mice in the group of the compound as shown in Formula I whose diarrhea grading was lower than that of mice in the chemotherapeutic agent group was recorded. Table 3 lists various animal experiment combinations of chemotherapeutic agents and the compound as shown in Formula I, as well as the corresponding experimental results. (Relative remission rate %=the number of mice in the group of the compound as shown in Formula I whose diarrhea has been effectively relieved/the total number of mice in the group of the compound as shown in Formula I*100%. The establishment rate of diarrhea model in the chemotherapeutic agent group was 50%-70%, that is, about 5-7 of 10 mice developed diarrhea during the experiment, and there were cases of individual mice death or not developing diarrhea.)

CN1CCN(c2ccc(Nc3ncc4cc5n(c4n3)C3(CCCCC3)CNC5=O)nc2)CC1 [Compound I, Trilaciclib] was tested, and the Relative remission rate (Ex 131, Fluorouracil 100 + irinotecan 200 mg/kg intraperitoneal single, compound 150 mg/kg oral single 24 h before, cycle 8 days) was 30%, the Relative remission rate (Ex 138, Fluorouracil 50 + oxaliplatin 5 + irinotecan 50 mg/kg intraperitoneal single, compound 100 mg/kg intraperitoneal single 0.5 h before, cycle 10 days) was 50% and the Relative remission rate (Ex 139, Fluorouracil 50 + oxaliplatin 5 + irinotecan 50 mg/kg intraperitoneal single, compound 100 mg/kg intraperitoneal single 4 h before, cycle 10 days) was 40%. It also gave a Relative remission rate (Ex 140, Fluorouracil 50 + oxaliplatin 5 + irinotecan 50 mg/kg intraperitoneal single, compound 100 mg/kg intraperitoneal single 8 h before, cycle 10 days) of 40%, a Relative remission rate (Ex 141, Fluorouracil 50 + oxaliplatin 5 + irinotecan 50 mg/kg intraperitoneal single, compound 100 mg/kg intraperitoneal single 12 h before, cycle 10 days) of 50% and a Relative remission rate (Ex 142, Fluorouracil 50 + oxaliplatin 5 + irinotecan 50 mg/kg intraperitoneal single, compound 100 mg/kg intraperitoneal single 24 h before, cycle 10 days) of 50%. It also gave a Relative remission rate (Ex 143, Fluorouracil 50 + oxaliplatin 5 + irinotecan 50 mg/kg intraperitoneal single, compound 100 mg/kg intraperitoneal single 48 h before, cycle 10 days) of 0%, a Relative remission rate (Ex 144, Fluorouracil 50 + oxaliplatin 5 + irinotecan 50 + tetrahydrofolic acid 90 mg/kg intravenous single, compound 100 mg/kg intravenous single 0.5 h before, cycle 10 days) of 50% and a Relative remission rate (Ex 145, Fluorouracil 50 + oxaliplatin 5 + irinotecan 50 + tetrahydrofolic acid 90 mg/kg intravenous single, compound 100 mg/kg intravenous single 1 h before, cycle 10 days) of 40%. It also gave a Relative remission rate (Ex 146, Fluorouracil 50 + oxaliplatin 5 + irinotecan 50 + tetrahydrofolic acid 90 mg/kg intravenous single, compound 100 mg/kg intravenous single 2 h before, cycle 10 days) of 40%, a Relative remission rate (Ex 147, Fluorouracil 50 + oxaliplatin 5 + irinotecan 50 + tetrahydrofolic acid 90 mg/kg intravenous single, compound 100 mg/kg intravenous single 3 h before, cycle 10 days) of 30% and a Relative remission rate (Ex 148, Fluorouracil 50 + oxaliplatin 5 + irinotecan 50 + tetrahydrofolic acid 90 mg/kg intravenous single, compound 100 mg/kg intravenous single 4 h before, cycle 10 days) of 40%. It also gave a Relative remission rate (Ex 149, Fluorouracil 50 + oxaliplatin 5 + irinotecan 50 + tetrahydrofolic acid 90 mg/kg intravenous single, compound 100 mg/kg intravenous single 6 h before, cycle 10 days) of 40%, a Relative remission rate (Ex 150, Fluorouracil 50 + oxaliplatin 5 + irinotecan 50 + tetrahydrofolic acid 90 mg/kg intravenous single, compound 100 mg/kg intravenous single 8 h before, cycle 10 days) of 30% and a Relative remission rate (Ex 151, Fluorouracil 50 + oxaliplatin 5 + irinotecan 50 + tetrahydrofolic acid 90 mg/kg intravenous single, compound 100 mg/kg intravenous single 10 h before, cycle 10 days) of 30%. For the same compound, the Relative remission rate (Ex 152, Fluorouracil 50 + oxaliplatin 5 + irinotecan 50 + tetrahydrofolic acid 90 mg/kg intravenous single, compound 100 mg/kg intravenous single 12 h before, cycle 10 days) was 30%, the Relative remission rate (Ex 153, Fluorouracil 50 + oxaliplatin 5 + irinotecan 50 + tetrahydrofolic acid 90 mg/kg intravenous single, compound 100 mg/kg intravenous single 14 h before, cycle 10 days) was 50% and the Relative remission rate (Ex 154, Fluorouracil 50 + oxaliplatin 5 + irinotecan 50 + tetrahydrofolic acid 90 mg/kg intravenous single, compound 100 mg/kg intravenous single 16 h before, cycle 10 days) was 50%. For the same compound, the Relative remission rate (Ex 155, Fluorouracil 50 + oxaliplatin 5 + irinotecan 50 + tetrahydrofolic acid 90 mg/kg intravenous single, compound 100 mg/kg intravenous single 18 h before, cycle 10 days) was 60%, the Relative remission rate (Ex 156, Fluorouracil 50 + oxaliplatin 5 + irinotecan 50 + tetrahydrofolic acid 90 mg/kg intravenous single, compound 100 mg/kg intravenous single 20 h before, cycle 10 days) was 60% and the Relative remission rate (Ex 157, Fluorouracil 50 + oxaliplatin 5 + irinotecan 50 + tetrahydrofolic acid 90 mg/kg intravenous single, compound 100 mg/kg intravenous single 24 h before, cycle 10 days) was 30%. For the same compound, the Relative remission rate (Ex 158, Fluorouracil 50 + oxaliplatin 5 + irinotecan 50 + tetrahydrofolic acid 90 mg/kg intravenous single, compound 100 mg/kg intravenous single 48 h before, cycle 10 days) was 0%, the Relative remission rate (Ex 159, Fluorouracil 50 + oxaliplatin 5 + irinotecan 50 + tetrahydrofolic acid 90 mg/kg intraperitoneal single, compound 100 mg/kg intraperitoneal single 0.5 h before, cycle 7 days) was 50% and the Relative remission rate (Ex 160, Fluorouracil 50 + oxaliplatin 5 + irinotecan 50 + tetrahydrofolic acid 90 mg/kg intraperitoneal single, compound 100 mg/kg intraperitoneal single 24 h before, cycle 7 days) was 20%. It also gave a Relative remission rate (Ex 163, Fluorouracil 50 + oxaliplatin 5 + irinotecan 50 + tetrahydrofolic acid 90 mg/kg intraperitoneal single, compound 150 mg/kg oral single 0.5 h before, cycle 7 days) of 40%, a Relative remission rate (Ex 164, Fluorouracil 50 + oxaliplatin 5 + irinotecan 50 + tetrahydrofolic acid 90 mg/kg intraperitoneal single, compound 150 mg/kg oral single 4 h before, cycle 7 days) of 60% and a Relative remission rate (Ex 165, Fluorouracil 50 + oxaliplatin 5 + irinotecan 50 + tetrahydrofolic acid 90 mg/kg intraperitoneal single, compound 150 mg/kg oral single 8 h before, cycle 7 days) of 80%.
